Read-outs that look alike come from different tables or passages of the source. Where a SMILES comes first, the peptide text is derived from it. Bridges are numbered along the chain shown (N, C = ends).
Columns and labels:
[1] = tested on: Candida albicans; conditions: cited from earlier work
From the text: In addition to bacteria, NCRs can also kill fungi. […] However, we noticed that, unlike the full sequence of NCR169, its C-terminal half was highly cationic (pI: 10.1) leading us to assume that this part may have antimicrobial activity.

[2] = tested on: Candida cells; assay: Fungicide effect, spotting of treated cells on solid YPD medium; type: cell-based, Candida species; conditions: 1.56–25 µM, 24 h treatment, dilutions spotted on solid YPD medium, 48 h, 30 °C
Experimental: To determine whether the inhibitory effect of the peptides is generated by fungistatic or fungicide action, the Candida cells were treated with the peptides in the same concentration range (1.56–25 µM) as in the growth inhibition assay. After 24 h 5 µL sample from the untreated control cells and from the peptide treated cells was added to 95 µL water and diluted further 10- and 100-fold. From each dilution, 5 µL was placed on solid medium and the growth of the control and peptide treated cells was compared after 48 h incubation at 30 °C. This assay confirmed that all the effective peptides, NCR335N1–19, NCR335N7–21, NCR335C1–33, NCR335C13–33, NCR335C17–33, NCR169C17–38, NCR169C17–38ox, NCR169C17–38W10,20/A provoked growth inhibition through fungicidal actions (Figure A2). The fungicide concentrations, required for the complete elimination of the Candida cells, were either equal to or twice higher than the minimum inhibitory concentrations presented in Table 2.
The same initial experimental setting was used to determine the fungicide effect of the peptides. Five µL samples were taken from the cultures after 24 h and were added to 95 µL sterile distilled water, and diluted to 10- and 100-fold (indicated as 10^4, 10^3 and 10^2 based on the cell number of the control culture in Figure A2). Five µL from each dilution were placed on solid YPD medium and the growth of the strains was detected after 48 h incubation at 30 °C.

[3] = tested on: Candida tropicalis CBS 94; assay: microbe, parasite or virus in culture; type: cell-based; conditions: micro-dilution, YNB medium, 4 × 10^4 cell/mL, 48 h, 30 °C, OD 620 nm; MIC = growth inhibition ≥90%; peptides 25 to 1.56 µM, fluconazole 200 to 0.78 µM; three biological repeats in triplicates; also: key: -: no growth inhibition was observed
Experimental: (§1) The antifungal activity of all the 14 peptides was tested against the following opportunistic human pathogen Candida species and strains: C. albicans strains ATCC 10231, SC 5314 and SZMC 1458, C. auris 0381, C. glabrata CBS 138, C. parapsilosis CBS 604 and C. tropicalis CBS 94.
(§2) All the Candida strains (Table 4) were grown overnight in YPD medium (1% pepton, 1% dextrose, 0.5% yeast extract) at 30 °C in water bath shaker prior to each experiments. The cells were harvested by centrifugation (5 min, 3000× g) washed twice with sterile distilled water and suspended in 5-fold diluted Difco Yeast Nitrogen Base w/o Amino Acids medium (Becton, Dickinson and Company, Sparks, MD, USA) supplemented with 1% dextrose, referred to as YNB medium in the text. Cells were counted in Bürker chamber and diluted to the proper concentration.
(§3) The growth inhibition of the peptides listed in Table 1 was tested in 96-well microtiter plates on Candida strains. The minimal inhibitory concentration (MIC) was determined with the micro-dilution method by adding 5 µL serially two-fold-diluted peptide solution to 95 µL of cell suspension (4 × 10^4 cell/mL) in YNB medium. After 48 h of incubation at 30 °C the optical density of the cultures was measured at 620 nm in SPECTROstar Nano plate reader (BMG LabTech, Offenburg, Germany). Minimal inhibitory concentration was defined as growth inhibition ≥90% compared to 100% growth of the untreated control. The experiments were carried out in three biological repeats always in triplicates.

[4] = tested on: Candida auris 0381; assay: microbe, parasite or virus in culture; type: cell-based; conditions: micro-dilution, YNB medium, 4 × 10^4 cell/mL, 48 h, 30 °C, OD 620 nm; MIC = growth inhibition ≥90%; peptides 25 to 1.56 µM, fluconazole 200 to 0.78 µM; three biological repeats in triplicates; also: key: -: no growth inhibition was observed
Experimental: as §1, §2, §3

[5] = tested on: C. tropicalis CBS 94 biofilm; assay: Biofilm formation assay, XTT; type: cell-based, Candida tropicalis; conditions: 72 h, 37 °C, 5 % CO2, 1/8AIM medium, p ≤ 0.0001
[6] = tested on: C. albicans SZMC 1458 biofilm; assay: Biofilm formation assay, XTT; type: cell-based, Candida albicans; conditions: 72 h, 37 °C, 5 % CO2, 1/8AIM medium, p ≤ 0.0001
[7] = tested on: C. albicans SC 5314 biofilm; assay: Biofilm formation assay, XTT; type: cell-based, Candida albicans; conditions: 72 h, 37 °C, 5 % CO2, 1/8AIM medium, p ≤ 0.0001
[8] = tested on: C. albicans ATCC 10231 biofilm; assay: Biofilm formation assay, XTT; type: cell-based, Candida albicans; conditions: 72 h, 37 °C, 5 % CO2, 1/8AIM medium, p ≤ 0.0001
[9] = tested on: Candida parapsilosis CBS 604; assay: microbe, parasite or virus in culture; type: cell-based; conditions: micro-dilution, YNB medium, 4 × 10^4 cell/mL, 48 h, 30 °C, OD 620 nm; MIC = growth inhibition ≥90%; peptides 25 to 1.56 µM, fluconazole 200 to 0.78 µM; three biological repeats in triplicates; also: key: -: no growth inhibition was observed
Experimental: as §1, §2, §3

[10] = tested on: C. tropicalis CBS 94; assay: Yeast-hypha morphology, bright-field microscopy; type: cell-based, Candida tropicalis; conditions: 0.78 µM peptide, 48 h, 1/8AIM medium
From the text: (§4) As hyphae formation is an important virulence factor, we investigated how the broad range activity peptides, NCR335C17–33, NCR169C17–38 and NCR169C17–38ox affect the morphological switch of C. albicans ATCC 10231 and C. tropicalis between the hyphal and yeast growth forms at sub-lethal concentrations (Figure 1). […] However, not only the morphology changed, but the cell number also declined, particularly in the latter case.
(§5) To induce morphological change of C. albicans and C. tropicalis YNB medium was changed for eight-fold diluted AIM-V+AlbuMAX (BSA) medium (Gibco, Thermo Fisher Scientific, Dublin, Ireland) referred to as 1/8AIM in the text.
(§6) Bright-field microscopy. The morphology of C. albicans ATCC 10231 and C. tropicalis cells was examined after 48 h incubation with the selected peptides (NCR335C17–33 and NCR169C17–38) by Zeiss Axio Observer inverted microscope (Carl Zeiss AG, Jena, Germany). The concentration of the NCR335C17–33 was 1.56 and 3.12 µM, NCR169C17–38 1.56 or 3.12 µM while NCR169C17–38ox 0.78 or 3.12 µM, the initial cell concentration was set to 4 × 10^4 cell/mL. Cells cultivated without peptides were used as control.

[11] = tested on: C. auris; conditions: C. auris; for reduction of MIC in the synergistic combination: compared with single use
Experimental: Amphotericin B, due to its high toxicity was not included in this assay.
The effects of the different combinations of fluconazole and NCR335C17–33, NCR169C17–38 or NCR169C17–38ox were determined by standard checkerboard titration method. The fluconazole was tested in a concentration range from 6.25 to 75 µM, NCR169C17–38 and NCR169C17–38ox from 0.78 to 12.50 µM, NCR335C17–33 from 1.56 to 25 µM. The initial cell concentration in each well was 4 × 10^4 cell/mL. After the incubation for 72 h at 30 °C, the optical density of the cultures was detected at 620 nm in SPECTROstar Nano plate reader (BMG LabTech, Offenburg, Germany). The inhibitory concentrations were determined for each compound alone and in combinations. The experiments were carried out at least three times. The effect of combinations was evaluated by fractional inhibitory concentration (FIC) index. FIC = FICA + FICB. FICA = (MICA in combination)/(MICA alone); FICB = (MICB in combination)/(MICB alone)

[12] = tested on: C. albicans ATCC 10231; assay: Yeast-hypha morphology, bright-field microscopy; type: cell-based, Candida albicans; conditions: 3.12 µM peptide, 48 h, 1/8AIM medium, sub-lethal concentration
From the text: as §4, §5, §6

Compound	growth inhibition by fungistatic or fungicide action [2]	Minimal inhibitory concentration, Cau 0381 [4]	concentration significantly inhibiting biofilm formation, relative to MIC [5]	concentration significantly inhibiting biofilm formation, relative to MIC [6]	concentration significantly inhibiting biofilm formation, relative to MIC [7]	concentration significantly inhibiting biofilm formation, relative to MIC [8]	Minimal inhibitory concentration, Cp CBS 604 [9]	further results
RLNTTFRPLNFKMLRFWGQNRNIMKHRGQKVHFSLILSDCKTNKDCPKLRRANVRCRKSYCVPI [NCR335, 64 amino acid long cationic nodule specific cysteine-rich peptide of Medicago truncatula]								MIC ([1]; C. albicans): 1.4 to 2.5 µM; minimal inhibitory concentrations (MIC), range over the listed cationic NCR peptides ([1]; C. albicans): 1.4 to 10 µM
CC[C@H](C)[C@H](NC(=O)[C@@H]1CCCN1C(=O)[C@@H](NC(=O)[C@H](CS)NC(=O)[C@H](Cc1ccc(O)cc1)NC(=O)[C@H](CO)NC(=O)[C@H](CCCCN)NC(=O)[C@H](CCCNC(=N)N)NC(=O)[C@H](CS)NC(=O)[C@H](CCCNC(=N)N)NC(=O)[C@@H](NC(=O)[C@H](CC(N)=O)NC(=O)[C@H](C)NC(=O)[C@H](CCCNC(=N)N)NC(=O)[C@H](CCCNC(=N)N)NC(=O)[C@H](CC(C)C)NC(=O)[C@H](CCCCN)NC(=O)[C@@H]1CCCN1C(=O)[C@H](CS)NC(=O)[C@H](CC(=O)O)NC(=O)[C@H](CCCCN)NC(=O)[C@H](CC(N)=O)NC(=O)[C@@H](NC(=O)[C@H](CCCCN)NC(=O)[C@H](CS)NC(=O)[C@H](CC(=O)O)NC(=O)[C@H](CO)NC(=O)[C@H](CC(C)C)NC(=O)[C@@H](NC(=O)[C@H](CC(C)C)NC(=O)[C@H](CO)NC(=O)[C@H](Cc1ccccc1)NC(=O)[C@@H](N)Cc1c[nH]cn1)[C@@H](C)CC)[C@@H](C)O)C(C)C)C(C)C)C(N)=O [NCR335C1–33] (H-HFSLILSDCKTNKDCPKLRRANVRCRKSYCVPI-NH2; N-terminus assumed)	fungicidal	-						Minimal inhibitory concentration, Ct CBS 94 [3]: -
EDIGHIKYCGIVDDCYKSKKPLFKIWKCVENVCVLWYK [NCR169]								activity against C. albicans ([1]; in the studied concentration range): inactive
CC[C@H](C)[C@H](NC(=O)[C@H](CCCCN)NC(=O)[C@H](Cc1ccccc1)NC(=O)[C@H](CC(C)C)NC(=O)[C@@H]1CCCN1C(=O)[C@H](CCCCN)NC(=O)[C@H](CCCCN)NC(=O)[C@H](CO)NC(=O)[C@@H](N)CCCCN)C(=O)N[C@@H](C)C(=O)N[C@@H](CCCCN)C(=O)N[C@@H](CS)C(=O)N[C@H](C(=O)N[C@@H](CCC(=O)O)C(=O)N[C@@H](CC(N)=O)C(=O)N[C@H](C(=O)N[C@@H](CS)C(=O)N[C@H](C(=O)N[C@@H](CC(C)C)C(=O)N[C@@H](C)C(=O)N[C@@H](Cc1ccc(O)cc1)C(=O)N[C@@H](CCCCN)C(N)=O)C(C)C)C(C)C)C(C)C [NCR169C17–38W10,20/A] (H-KSKKPLFKIAKCVENVCVLAYK-NH2; N-terminus assumed)	fungicidal	-	one-fourth of the MIC	MIC	half MIC	half MIC	-	
CC[C@H](C)[C@H](NC(=O)[C@H](CCCCN)NC(=O)[C@H](Cc1ccccc1)NC(=O)[C@H](CC(C)C)NC(=O)[C@@H]1CCCN1C(=O)[C@H](CCCCN)NC(=O)[C@H](CCCCN)NC(=O)[C@H](CO)NC(=O)[C@@H](N)CCCCN)C(=O)N[C@@H](Cc1c[nH]c2ccccc12)C(=O)N[C@@H](CCCCN)C(=O)N[C@H]1CSSC[C@@H](C(=O)N[C@H](C(=O)N[C@@H](CC(C)C)C(=O)N[C@@H](Cc2c[nH]c3ccccc23)C(=O)N[C@@H](Cc2ccc(O)cc2)C(=O)N[C@@H](CCCCN)C(N)=O)C(C)C)NC(=O)[C@H](C(C)C)NC(=O)[C@H](CC(N)=O)NC(=O)[C@H](CCC(=O)O)NC(=O)[C@H](C(C)C)NC1=O [NCR169C17–38ox] (H-KSKKPLFKIWKCVENVCVLWYK-NH2; disulfide 12-17; N-terminus assumed)	fungicidal		half MIC	half MIC	one-fourth of the MIC	MIC	-	effect on hyphal/yeast growth form [10]: the only form of the culture; Action ([11]; NCR169C17–38 + NCR169C17–38ox): Synergism; reduction of MIC in the synergistic combination ([11]; NCR169C17–38 + NCR169C17–38ox): 8 ×; Action ([11]; fluconazole + NCR169C17–38ox): Synergism; reduction of MIC in the synergistic combination ([11]; fluconazole + NCR169C17–38ox): 8 ×; effect on hyphal growth [12]: completely inhibited the hyphal growth

Reference: PMC8037406, “Symbiotic NCR Peptide Fragments Affect the Viability, Morphology and Biofilm Formation of Candida Species” (International Journal of Molecular Sciences, 2021)
